The values below come from ChEMBL document CHEMBL1136926 (J Med Chem, 2009).

Each structure is given as a SMILES string. The source made the active and inactive calls. No cut-off for these calls is given here. Positions of bridges follow the written chain, without caps; N, C: chain ends. Non-standard residues stand in square brackets, D forms with d. Residues, ends and D or L forms follow the SMILES beside them. dPen = CC(C)(S)[C@@H](N)C(=O)O; Orn = NCCC[C@H](N)C(=O)O

For one test, the target named is T1, Urotensin-2 receptor (Rattus norvegicus) (UniProt P49684).
T1 sequence (whole entry): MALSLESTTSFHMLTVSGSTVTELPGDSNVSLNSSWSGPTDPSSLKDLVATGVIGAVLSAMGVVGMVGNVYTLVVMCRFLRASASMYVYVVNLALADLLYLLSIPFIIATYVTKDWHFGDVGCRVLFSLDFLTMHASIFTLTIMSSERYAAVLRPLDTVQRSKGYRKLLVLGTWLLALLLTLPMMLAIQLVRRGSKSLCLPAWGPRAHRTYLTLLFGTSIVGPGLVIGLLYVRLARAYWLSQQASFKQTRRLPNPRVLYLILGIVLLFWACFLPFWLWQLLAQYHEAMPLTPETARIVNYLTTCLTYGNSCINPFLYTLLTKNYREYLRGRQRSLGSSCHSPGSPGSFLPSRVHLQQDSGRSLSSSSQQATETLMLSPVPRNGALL
As to conditions: Albino, Aorta.
Description: Agonist activity at UT2 receptor in Albino rat aorta assessed as induction of aortic contraction
In the case of `CC(C)[C@H](NC(=O)[C@@H]1CSSC(C)(C)[C@@H](NC(=O)[C@@H](N)CC(=O)O)C(=O)N[C@@H](Cc2ccccc2)C(=O)N[C@H](Cc2c[nH]c3ccccc23)C(=O)N[C@@H](CCCN)C(=O)N[C@@H](Cc2ccc(O)cc2)C(=O)N1)C(=O)O` (H-D[dPen]F[dW][Orn]YCV-OH; disulfide 2-7), the pEC50 entry was “inactive”.

The target in the next test is T1, Urotensin-2 receptor (Rattus norvegicus). Kind of test: Antagonist activity at UT2 receptor in Albino rat aorta assessed as inhibition of […] aortic contraction.
Conditions: not given
It is filed as functional, tissue-based.
A word on the pKb: it is the negative decadic logarithm of the Kb, by convention in mol/L. For `CC(C)[C@H](NC(=O)[C@@H]1CSSC(C)(C)[C@@H](NC(=O)[C@@H](N)CCCCN)C(=O)N[C@@H](Cc2ccccc2)C(=O)N[C@H](Cc2c[nH]c3ccccc23)C(=O)N[C@@H](CCCN)C(=O)N[C@@H](Cc2ccc(O)cc2)C(=O)N1)C(=O)O`, the pKb was 7.49.

On to `CC(C)[C@H](NC(=O)[C@@H]1CSSC(C)(C)[C@@H](NC(=O)[C@@H](N)Cc2ccc3ccccc3c2)C(=O)N[C@@H](Cc2ccccc2)C(=O)N[C@H](Cc2c[nH]c3ccccc23)C(=O)N[C@@H](CCCN)C(=O)N[C@@H](Cc2ccc(O)cc2)C(=O)N1)C(=O)O`, for which the pKb came out at 7.89. Consider `CC(C)[C@H](NC(=O)[C@@H]1CSSC(C)(C)[C@@H](NC(=O)[C@@H](N)Cc2ccc([N+](=O)[O-])cc2)C(=O)N[C@@H](Cc2ccccc2)C(=O)N[C@H](Cc2c[nH]c3ccccc23)C(=O)N[C@@H](CCCN)C(=O)N[C@@H](Cc2ccc(O)cc2)C(=O)N1)C(=O)O`, for which the pKb was 7.9.

Regarding `CC(C)[C@H](NC(=O)[C@@H]1CSSC(C)(C)[C@@H](NC(=O)[C@@H](N)Cc2cccc3ccccc23)C(=O)N[C@@H](Cc2ccccc2)C(=O)N[C@H](Cc2c[nH]c3ccccc23)C(=O)N[C@@H](CCCN)C(=O)N[C@@H](Cc2ccc(O)cc2)C(=O)N1)C(=O)O`, the pKb stood at 8.5. Same read-out and setting: the figure for `CC(C)[C@H](NC(=O)[C@@H]1CSSC(C)(C)[C@@H](NC(=O)[C@@H]2Cc3ccccc3CN2)C(=O)N[C@@H](Cc2ccccc2)C(=O)N[C@H](Cc2c[nH]c3ccccc23)C(=O)N[C@@H](CCCN)C(=O)N[C@@H](Cc2ccc(O)cc2)C(=O)N1)C(=O)O` is 8.94; for `CC(C)[C@H](NC(=O)[C@@H]1CSSC(C)(C)[C@@H](NC(=O)[C@@H](N)CC(=O)O)C(=O)N[C@@H](Cc2ccccc2)C(=O)N[C@H](Cc2c[nH]c3ccccc23)C(=O)N[C@@H](CCCN)C(=O)N[C@@H](Cc2ccc(O)cc2)C(=O)N1)C(=O)O` (H-D[dPen]F[dW][Orn]YCV-OH; disulfide 2-7) it is 8.3. On to `CC(C)[C@H](NC(=O)[C@@H]1CSSC(C)(C)[C@@H](NC(=O)[C@@H](N)Cc2ccccc2)C(=O)N[C@@H](Cc2ccccc2)C(=O)N[C@H](Cc2c[nH]c3ccccc23)C(=O)N[C@@H](CCCN)C(=O)N[C@@H](Cc2ccc(O)cc2)C(=O)N1)C(=O)O`, for which the pKb is 8.68.
